In US11434205B2, “Substituted imidazole carboxylate derivatives and the use thereof” (priority 2018, dated 2022):
Read-outs that look alike come from different tables or passages of the source.

Experiments:
rats [1] = system: rats
Method: Adult male Sprague-Dawley rats (250-300 g) were selected for the experiment. […] The anesthesia effects of the compounds were assessed in rats using a LORR assay and a period >30 s was considered as an indicator of general anesthesia. Then the up and down method was used to determine 50% effective dose (ED50). The drugs were administered through the tail vein of rats in a volume of 0.6 mL and at a rate of 0.1 mL/s.

rats [2] = type: in vivo, rat; conditions: rats of the MAP/HR figures, 2×ED50, tail vein; same value in min
In short: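 Rats implanted with telemetry (left ventricular and abdominal aortic catheters, ECG leads) at least one week before recording; compounds given via lateral tail-vein catheter. MAP and HR sampled every 15 s for 30 min before and after dosing to judge hemodynamic stability.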

[3] = system: secretion of corticosterone, H295R cell line; experiment: cells; type: cell-based; conditions: for EC50: read-out: EC50 (Corticosterone)
Method: (§1) The Effects of the Compounds on Adrenocortical Function In Vitro Test
(§2) Then secretion of the cortisol and corticosterone in the supernatant, was measured using HPLC-MS/MS method to determine whether the compounds of the present invention had adrenotoxic potential.

[4] = system: secretion of cortisol, H295R cell line; experiment: cells; type: cell-based; conditions: for EC50: read-out: EC50 (Cortisol)
Method: as §1, §2

rats [5] = experiment: Pharmacological characteristics at equivalent doses (2×ED50) in rats; conditions: 2×ED50, tail vein; for Adverse reactions: Red urine (incidence): DMSO solution (DMSO alone 10/10); for Onset time: time of LORR; for Adverse reactions: Tremor (incidence): animals affected/animals
In short: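 Adult male Sprague-Dawley rats (250-300 g, n=8) received each drug at twice its ED50 via tail vein (0.6 mL at 0.1 mL/s). Onset of anesthesia taken as time to LORR.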

rats [6] = system: rats; remark: listed apart in the source
Method: Pharmacological Effects of the Compounds on Continuous Infusion in Rats
Adult male Sprague-Dawley rats with body weight ranging from 250 to 300 gm were selected for continuous infusion test. […] Time to recovery of righting reflex from stopping infusion, and time to fully awake from stopping infusion were recorded.

rats [7] = type: in vivo, rat; conditions: rats of the MAP/HR figures, 2×ED50, tail vein
rats [8] = experiment: Loss of righting reflexes (LORR) assay in rats, ED50 by up and down method; type: in vivo, rat; conditions: tail vein, class symbols; for ED50: Rattus norvegicus
In short: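 Adult male Sprague-Dawley rats (250-300 g) dosed i.v. via tail vein at 0.1 mL/s. Anesthesia scored as loss of righting reflex lasting >30 s; ED50 derived by up-and-down method.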

[9] = emulsion, continuous infusion at 2×MIR
[10] = H295R cell line, 0.1-10000 nM, HPLC-MS/MS, Table D3
[11] = continuous tail vein infusion at 2×MIR, LORR maintained 1 hour, Table D4
[12] = H295R cell line, 0.1-10000 nM, HPLC-MS/MS, Table E3
[13] = continuous tail vein infusion at 2×MIR, LORR maintained 1 hour, Table E4

Structure (SMILES) | Approximate therapeutic index (rats [1]) | Minimal lethal dose (rats [1]) | recovery time of the test animals' righting reflex (rats [2]) | EC50 ([3]; Homo sapiens, NCI-H295R) | EC50 ([4]; Homo sapiens, NCI-H295R) | Righting reflex duration (rats [5]) | Adverse reactions: Red urine (incidence) (rats [5]) | Onset time (rats [5]) | Recovery time after stopping infusion (rats [6]; after 1 hour infusion at 2×MIR) | Adverse reactions: Tremor (incidence) (rats [6]; continuous infusion 2×MIR) | Onset time (rats [6]; [9]) | recovery time of the test animals' righting reflex (rats [7]) | ED50 (rats [8]) | Corticosterone as an indicator to determine the presence of inhibition ([3]; H295R, Table A3) | Cortisol as an indicator to determine the presence of inhibition ([4]; H295R, Table A3) | Corticosterone as an indicator to determine the presence of inhibition [3, 10] | Cortisol as an indicator to determine the presence of inhibition [4, 10] | Onset time (rats [6]; [11]) | Recovery time after stopping infusion (rats [6]; [11]) | Types and incidence of adverse reactions (rats [6]; [11]) | further results
CCC1(COC(=O)c2cncn2[C@H](C)c2ccccc2)COC1 [Compound B9] | >12 | >18 mg/kg | 1.82 min | > 10 µM | > 10 µM | 1.98 ± 1.21 min | 8/8 | 0.39 ± 0.1 min | 10 to 13 min | 1/6 | 2 to 3 min | 109 s | 0.5 to 1 mg/kg | – | – | – | – | – | – | – | Corticosterone as an indicator to determine the presence of inhibition ([3]; H295R, Table B3): 0; Cortisol as an indicator to determine the presence of inhibition ([4]; H295R, Table B3): 0; Adverse reactions: Restlessness (incidence) (rats [5]): 1/8; Adverse reactions: Restlessness (incidence) (rats [6]; continuous infusion 2×MIR): 2/6
CC(OC(=O)c1cncn1[C@H](C)c1ccccc1)C1CC1 (stereo partly shown) [Compound A16] | >33 | >10 mg/kg | 2.78 min | > 1 µM | > 1 µM | 2.63 ± 1.20 min | 8/8 | 0.16 ± 0.07 min | 12 to 14 min | Tremor (3/6) | 2 to 3 min | 167 s | 0.1 to 0.5 mg/kg | 0 | 0 | – | – | – | – | – | Adverse reactions: Tremor (incidence) (rats [5]): 2/8
C=C=CC1(OC(=O)c2cncn2[C@H](C)c2ccccc2)CCC1 [Compound D13] | >12 | >6 mg/kg | 1.82 min | > 10 µM | > 10 µM | 5.09 ± 1.89 min | Red urine (8/8) | 0.25 ± 0.06 min | – | – | – | 109 s | 0.01 to 0.1 mg/kg | – | – | 0 | 0 | 2 to 3 min | 13 to 22 min | Tremor (4/6) | –
COCC1(COC(=O)c2cncn2[C@H](C)c2ccccc2)CCC1 [Compound A11] | >12 | >1 mg/kg | 3.75 min | > 10 µM | > 10 µM | 3.81 ± 1.49 min | Red urine (8/8) | 0.21 ± 0.10 min | 14 to 18 min | Tremor (5/6) | 3 to 4 min | 225 s | 0.01 to 0.1 mg/kg | 0 | 0 | – | – | – | – | – | –
C=C=CC1(OC(=O)c2c(F)ncn2[C@H](C)c2ccccc2)COC1 [Compound E37] | >30 | >0.6 mg/kg | 1.67 min | – | – | 1.75 ± 0.26 min | (8/8) | 0.25 ± 0.15 min | – | – | – | 100 s | – | – | – | – | – | – | – | – | Corticosterone as an indicator to determine the presence of inhibition [3, 12]: 0; EC50 [3, 12]: > 10 µM; Cortisol as an indicator to determine the presence of inhibition [4, 12]: 0; EC50 [4, 12]: > 10 µM; Sedation duration (mg/kg) (rats [5]): 3.66 ± 1.12; Onset time (rats [6]; [13]): 2 to 3 min; Recovery time after stopping infusion (rats [6]; [13]): 7 to 10 min; Types and incidence of adverse reactions (rats [6]; [13]): Tremor (2/6); ED50 (mg/kg) (rats [8]): A (A indicates that the measured ED50 is in the range of 0.01-0.10 mg/kg (including 0.01 and 0.10 mg/kg).)
C[C@H](c1ccccc1)n1cnc(F)c1C(=O)OC1(C)COC1 [Compound E38] | >20 | >7 mg/kg | 2.03 min | – | – | 1.96 ± 1.39 min | (8/8) | 0.25 ± 0.13 min | – | – | – | 122 s | – | – | – | – | – | – | – | – | Corticosterone as an indicator to determine the presence of inhibition [3, 12]: 0; EC50 [3, 12]: > 10 µM; Cortisol as an indicator to determine the presence of inhibition [4, 12]: 0; EC50 [4, 12]: > 10 µM; Sedation duration (mg/kg) (rats [5]): 4.96 ± 1.66; Onset time (rats [6]; [13]): 2 to 3 min; Recovery time after stopping infusion (rats [6]; [13]): 8 to 13 min; Types and incidence of adverse reactions (rats [6]; [13]): Tremor (3/6); ED50 (mg/kg) (rats [8]): B (B means that the measured ED50 is in the range of 0.10-0.50 mg/kg (excluding 0.10 mg/kg, including 0.50 mg/kg).)
C[C@H](c1ccccc1)n1cncc1C(=O)OCC1CC(F)(F)C1 [Compound A12] | >16 | >10 mg/kg | 4.23 min | – | > 1 µM | 4.04 ± 1.65 min | (8/8) | 0.16 ± 0.06 min | 13 to 16 min | Tremor (4/6) | 3 to 4 min | 254 s | 0.5 to 1 mg/kg | 0 | 0 | – | – | – | – | – | Adverse reactions: Restlessness (incidence) (rats [5]): Restlessness (2/8), Red urine
CCCC1(OC(=O)c2cncn2[C@H](C)c2ccccc2)COC1 [Compound B19] | >11 | >20 mg/kg | 2.08 min | > 10 µM | > 10 µM | 1.99 ± 1.39 min | 8/8 | 0.31 ± 0.13 min | 12 to 17 min | Tremor (5/6) | 3 to 4 min | 125 s | 0.5 to 1 mg/kg | – | – | – | – | – | – | – | Corticosterone as an indicator to determine the presence of inhibition ([3]; H295R, Table B3): 0; Cortisol as an indicator to determine the presence of inhibition ([4]; H295R, Table B3): 0; Adverse reactions: Tremor (incidence) (rats [5]): 2/8
CC#CCOC(=O)c1cncn1[C@H](C)c1ccccc1 [Compound D18] | >12 | >3 mg/kg | 5.28 min | > 10 µM | > 10 µM | 1.88 ± 0.95 min | urine (8/8) | 0.22 ± 0.11 min | – | – | – | 317 s | 0.1 to 0.5 mg/kg | – | – | 0 | 0 | 3 to 4 min | 11 to 13 min | Convulsions (1/6), Tremor (4/6) | Adverse reactions: Convulsions (incidence) (rats [5]): Convulsions (1/8), Red
C#CC(C)OC(=O)c1cncn1[C@H](C)c1ccccc1 (stereo partly shown) [Compound D14] | >13 | >3 mg/kg | 3.5 min | > 10 µM | > 10 µM | 2.09 ± 1.08 min | Red urine (8/8) | 0.24 ± 0.09 min | – | – | – | 210 s | 0.1 to 0.5 mg/kg | – | – | 0 | 0 | 2 to 3 min | 11 to 14 min | Tremor (5/6) | –
